Test results as given in the supplement of paper PMC10307832.

Experiments:
Test in all cases: relative viability (nuclei count vs DMSO), 5 days (fraction); higher = more cells survive
AZ505 + Palbociclib = compound: C1CCC(CC1)N(CCNCCC2=C3C(=C(C=C2)O)NC(=O)CO3)C(=O)CCNCCC4=CC(=C(C=C4)Cl)Cl [AZ505] + CC(=O)c1c(C)c2cnc(Nc3ccc(N4CCNCC4)cn3)nc2n(C2CCCC2)c1=O [Palbociclib] (partner 0.5 µM)
How it was run: (§1)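 Lung cancer cell lines were seeded in 1536-well plates and dosed by pin tool the next day, with either a single drug or a fixed anchor-drug dose combined with five library-drug doses (not always all listed) spaced in √10 steps. Five days later, one step fixed the cells and stained their nuclei (final 0.05% Triton X-100, 1% formaldehyde, 1 ug/ml Hoechst), and nuclei were counted on 4× images. Relative viability is the nuclei count in treated wells divided by the count in vehicle wells, and each value is the median of duplicate plates.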

Dactolisib + Palbociclib = compound: Cn1c(=O)n(-c2ccc(C(C)(C)C#N)cc2)c2c3cc(-c4cnc5ccccc5c4)ccc3ncc21 [Dactolisib] + CC(=O)c1c(C)c2cnc(Nc3ccc(N4CCNCC4)cn3)nc2n(C2CCCC2)c1=O [Palbociclib] (partner 0.5 µM)
How it was run: as §1

AZ505 + AZD7762 = compound: C1CCC(CC1)N(CCNCCC2=C3C(=C(C=C2)O)NC(=O)CO3)C(=O)CCNCCC4=CC(=C(C=C4)Cl)Cl [AZ505] + NC(=O)Nc1cc(-c2cccc(F)c2)sc1C(=O)N[C@H]1CCCNC1 [AZD7762] (partner 0.2 µM)
How it was run: as §1

AZ505 + Luminespib = compound: C1CCC(CC1)N(CCNCCC2=C3C(=C(C=C2)O)NC(=O)CO3)C(=O)CCNCCC4=CC(=C(C=C4)Cl)Cl [AZ505] + CCNC(=O)c1noc(-c2cc(C(C)C)c(O)cc2O)c1-c1ccc(CN2CCOCC2)cc1 [Luminespib] (partner 0.01 µM)
How it was run: as §1

| Cell Line | relative viability (AZ505 + Palbociclib; first compound 0.08 µM) | relative viability (AZ505 + Palbociclib; first compound 0.253 µM) | relative viability (AZ505 + Palbociclib; first compound 0.8 µM) | relative viability (AZ505 + Palbociclib; first compound 2.53 µM) | relative viability (AZ505 + Palbociclib; first compound 8 µM) | relative viability (Dactolisib + Palbociclib; first compound 0.002 µM) | relative viability (Dactolisib + Palbociclib; first compound 0.006325 µM) | relative viability (Dactolisib + Palbociclib; first compound 0.02 µM) | relative viability (Dactolisib + Palbociclib; first compound 0.06325 µM) | relative viability (Dactolisib + Palbociclib; first compound 0.2 µM) | relative viability (AZ505 + AZD7762; first compound 0.08 µM) | relative viability (AZ505 + AZD7762; first compound 0.253 µM) | relative viability (AZ505 + AZD7762; first compound 0.8 µM) | relative viability (AZ505 + AZD7762; first compound 2.53 µM) | relative viability (AZ505 + AZD7762; first compound 8 µM) | relative viability (AZ505 + Luminespib; first compound 0.08 µM) | relative viability (AZ505 + Luminespib; first compound 0.253 µM) | relative viability (AZ505 + Luminespib; first compound 0.8 µM) | relative viability (AZ505 + Luminespib; first compound 2.53 µM) | relative viability (AZ505 + Luminespib; first compound 8 µM) |
| --- | --- | --- | --- | --- | --- | --- | --- | --- | --- | --- | --- | --- | --- | --- | --- | --- | --- | --- | --- | --- |
| NCI-H1993 | 0.599 | 0.705 | 0.621 | 0.583 | 0.713 | 0.605 | 0.524 | 0.439 | 0.424 | 0.354 | 0.629 | 0.722 | 0.609 | 0.854 | 0.943 | 0.842 | 0.795 | 0.716 | 0.911 | 0.861 |
| RERF-LC-KJ | 0.982 | 1.15 | 1.05 | 1 | 0.984 | 1.19 | 1.12 | 0.863 | 0.438 | 0.452 | 0.95 | 0.964 | 0.923 | 0.98 | 0.909 | 1.24 | 1.33 | 1.22 | 1.2 | 1.03 |
| NCI-H23 | 0.465 | 0.522 | 0.505 | 0.533 | 0.485 | 0.464 | 0.383 | 0.37 | 0.189 | 0.191 | 0.228 | 0.146 | 0.255 | 0.268 | 0.157 | 0.214 |  | 0.208 | 0.221 | 0.196 |
| EMC-BAC-2 | 0.437 | 0.528 | 0.496 | 0.509 | 0.526 | 0.563 | 0.486 | 0.461 | 0.324 | 0.29 | 0.957 | 1.17 | 1.11 | 1.14 | 1.14 | 1.14 | 1.13 | 1.23 | 1.03 | 1.19 |
| NCI-H2405 | 0.427 |  | 0.441 | 0.463 | 0.426 | 0.471 | 0.542 | 0.449 | 0.314 | 0.291 | 0.45 |  | 0.605 | 0.605 | 0.665 | 0.598 | 0.474 | 0.586 | 0.597 | 0.474 |
| NCI-H358 | 0.122 | 0.156 | 0.153 | 0.139 | 0.151 | 0.141 | 0.146 | 0.134 | 0.112 | 0.096 | 0.466 | 0.52 | 0.422 |  | 0.526 | 0.22 | 0.306 | 0.402 |  | 0.584 |
| NCI-H1944 | 0.346 | 0.325 | 0.339 | 0.3 | 0.308 | 0.403 | 0.334 | 0.23 | 0.192 | 0.181 | 0.455 | 0.519 | 0.727 | 0.389 | 0.474 | 0.827 | 0.715 | 0.77 | 0.707 | 0.738 |
| EPLC-272H | 0.272 | 0.291 | 0.315 | 0.298 | 0.35 | 0.331 | 0.299 | 0.341 | 0.317 | 0.287 | 0.451 | 0.253 | 0.433 | 0.424 | 0.343 |  | 0.161 | 0.373 | 0.25 | 0.301 |
